# Where a name gives a salt, the structure may show the parent alone. Read-outs that look alike come from different tables or passages of the source.
# Tests used:
# [1] = system: subclone F28-7 cells of FM3A cell line originating from a mouse mammary tumor; assay: Toxicity of test compound against subclone F28-7 cells of FM3A cell line (cell proliferation); assay type: cell-based; conditions: for EC50: Mus musculus, FM3A; for Rate (%) of proliferation of cells of the F28-7 cell line: 48 hours
# Description: Cells of subclone F28-7 cell line of a mouse mammary tumor, which is a wild type cell line of the FM3A cell line originating from a mouse mammary tumor, were used as the test cells. The culture medium to be used for cultivation of the cells of the subclone F28-7 cell line was prepared by supplementing an ES medium with 2% of a heat-inactivated fetal bovine serum. The cultivation of the subclone F28-7 cell line under test was effected in this serum-supplemented ES medium at 37° C. in air containing 5% CO2.
# After the pre-cultivation was effected, the cell density of cells of the subclone F28-7 cell line which had entered the logarithmic proliferation phase was adjusted to a level of 5×10^4 cells/ml by diluting the culture of the cells with a volume of the fresh culture medium. Thus, there was prepared a cell suspension of cells of the subclone F28-7 cell line as cultured.
# For the solution of the test compound, there was used the same solution as that which was hereinbefore prepared in the test for the determination of the antimalarial activity of the test compound against the proliferation of malarial parasite.
# The culture medium to be used for the cultivation of the subclone F28-7 cell line above mentioned was placed in the individual wells of a multidish 24-wells. Then, for the treated test groups, the solution of the test compound was added in an amount of 5˜10 microliters to the culture medium in each well of the incubation plate so as to adjust a final concentration of the test compound as added to be 1×10^−4 to 1×10^−6 M.
# The test was carried out in duplicate or triplicate. On the other hand, for the control test groups (untreated), no test compound was added to each well, but instead thereof a sterilized water, DMF or DMSO was added to each well in an amount of 10 μl. Then, the cell suspension of cells of the subclone F28-7 cell line as already prepared in the above was dispensed in an amount of 990-995 μl to each well by pipetting. The pipetting was effected carefully and gently, so that the cells as added were evenly suspended in the culture medium in each well. Thereafter, the cells of subclone F28-7 cell line were incubated for 48 hours under the aforesaid cultivating conditions. Then, the number of the cells of the subclone F28-7 cell line was counted by means of a microcell counter (CC-108, Toa Medical Electric Co.) for the cell culture as obtained in the individual wells of both the treated test groups and the control test (untreated) groups.
# The inhibitory activity of the test compound against the proliferation of cells of the subclone F28-7 cell line was subsequently estimated from such value of the rate (%) of the proliferation of cells of the subclone F28-7 cell line which is defined by the undermentioned equation with reference to the counted number of cells of the subclone F28-7 cell line in the cell culture contained in each well and having been incubated in the presence of the test compound added for the treated test group, and with reference to the counted number of cells of the subclone F28-7 cell line having been incubated in the absence of the test compound for the control test group. The toxicity of the test compound was thus evaluated from the value of the rate (%) of proliferation of cells of the subclone F28-7 cell line so estimated. [formula]
# [2] = system: Plasmodium falciparum; assay: In vitro test of inhibitory activity against proliferation of malarial parasites in human red blood cells; assay type: cell-based; conditions: for Selective toxicity: ratio of EC50 for the F28-7 cell line to EC50 for the malarial parasite (P. falciparum FCR-3 strain); for Rate (%) of proliferation of malarial parasite: 72 hours
# Description: In this test Example, two strains of Plasmodium falciparum, namely strain FCR-3 (ATCC 30932) and strain Honduras-1 (ATCC 30950) were used as the malarial parasites to be tested, and each malarial strain was incubated separately in vitro as described below. […] The resulting culture medium as supplemented with the human serum was then adjusted to have a hematocrit level (namely, a ratio of the total volume of the red blood cells to the volume of the liquid culture medium comprising the suspended red blood cells) of 5%, and thereafter the culture medium as adjusted was placed in individual wells of 24-well incubation microplates. The culture medium in each well was inoculated with Plasmodium falciparum under test. The initial rate (%) of infection of the red blood cells with the malarial parasite in individual wells was then adjusted to a value of 0.1% at the start of the incubation. Thereafter, there was carried out the incubation of the red blood cells along with the infecting Plasmodium falciparum. This incubation was effected at 36.5° C. in an atmosphere comprising 5.0% oxygen, 5.0% carbon dioxide and 90% nitrogen.
# The culture medium present in each well was daily changed freshly. At the time when the rate (%) of infection of the red blood cells with the malarial parasite increased to reach a value of 4%, the transfer of the incubated cultures to another incubation microplates was conducted. Thus, the cultures of the malarial parasites under test were prepared.
# By the way, the rate (%) of infection of the red blood cells with the malarial parasite as above-mentioned was evaluated by a procedure that comprised removing a sample from the culture of the parasitized red blood cells in each well, preparing thin blood film specimen containing the red blood cells from each sample, staining said thin blood film specimen by means of Giemsa staining or Diff-Qick staining method, counting the number of the stained red blood cells as infected with the malarial parasite per one thin blood film, under a microscope (oil immersion; 1,000×), and calculating the rate (%) of infection of the red blood cells with malarial parasite according to the undermentioned equation: [formula]
# In turn, the abovementioned culture of the parasitized red blood cells as prepared in the above was subjected to a centrifugation to collect the red blood cells which had been infected with the malarial parasite. The infected red blood cells so collected were washed with an PRMI 1640 medium supplemented with the human serum, and then were added with such red blood cells which were not yet infected with the malarial parasite. Thus, there was prepared such a culture of the malarial parasite having infected the red blood cells, in which the initial rate (%) of infection of the red blood cells with the malarial parasite had firstly been adjusted to a value of 0.3%. The hematocrit level of this culture of the malarial parasite so prepared at this time point was 3%.
# On the other hand, the compound to be tested in the present experiments was previously prepared in the form of a solution of each compound dissolved in a sterilized water, dimethylformamide (DMF) or dimethylsulfoxide (DMSO).
# (i) The culture medium to be used for incubation of malarial parasite as above-mentioned was placed in individual wells of a multidish 24-wells. Then, for the treated test groups, each solution of the test compound as previously prepared in the above was added in an amount of 5 to 10 microliters (μl) into each well containing said culture medium therein. Then, the concentration of the test compound as added to the culture medium present in the individual wells of the multidish 24-well microplates was adjusted to different values in the individual wells. The test was carried out in duplicate or triplicate. On the other hand, for the control test groups (untreated), no test compound was added to each well, but instead thereof sterilized water, DMF or DMSO was added thereto in an amount of 10 μl.
# [3] = system: ICR mice; assay: Acute toxicity, intraperitoneal injection; assay type: in vivo; conditions: 14th day, 3 mice per group
# Description: (§1) SF2487 substance (Na salt) in the form of a solution dissolved in a physiological saline containing 10% DMSO was administered to ICR mice (5-weeks old, 3 mice per group) in different doses by intraperitoneal injection.
# [4] = Acute toxicity, intraperitoneal injection; assay type: in vivo; conditions: mouse, in vivo, ip; ICR mice, intraperitoneal administration, 14th day
# Description: as §1
# [5] = system: Plasmodium berghei NK65 strain; assay: In vivo test of antimalarial activity against malarial parasite in infected ICR mice; conditions: ICR mice infected with P. berghei NK65, dose of 5 mg/kg, printed 'intravenous injection', once a day on Day 0 and Day 1, blood read on Day 4
# Description: As mice for this test, there were used ICR mice (male) of 5-weeks old with body weight of 26-31 g (five mice per group). As the source of the malarial infection for this experiment, murine malarial parasite, Plasmodium berghei NK65 strain was used.
# Blood sample was drawn by cardiac puncture from each of the donor ICR mice which had been infected with Plasmodium berghei NK65 strain. […]
# For sake of convenience, a time schedule was so set that the time of inoculating the test mice with the malarial parasite by intravenous injection of the cell suspension of the parasitized red blood cells was Day 0. […] For both of the untreated test group and the treated test group, the rate (%) of infection of the red blood cells with the malarial parasite in each of the mouse blood samples was evaluated. […] The rate (%) of inhibition against the proliferation of the malarial parasite used here indicates such value as calculated by the following equation: [formula] where A means the average rate (%) of infection of the red blood cells with the malarial parasite as effected in the untreated test group, and B means the average rate (%) of infection of the red blood cells with the malarial parasite as effected in the treated test group.
# [6] = Solubility in solvents; assay type: physicochemical
# [7] = read-out: EC50 values, namely molar concentrations of test compound for the 50% inhibition of proliferation, the F28-7 cell line, F28-7 cell line, 48 hours incubation
# [8] = read-out: EC50 values, namely molar concentrations of test compound for the 50% inhibition of proliferation, P. falciparum FCR-3 strain, 72 hours incubation
# [9] = 48 h, read-out: EC50 values, namely molar concentrations of test compound for the 50% inhibition of proliferation, the F28-7 cell line
# [10] = 1 × 10^−7 Molar test compound in culture medium
compound,measurement,setting,value
"C[C@@H]1CC[C@H]2[C@@H](C)C(=O)O[C@@H]3O[C@@]4(C)CC[C@@H]1[C@]32OO4 [Artemisinin, reference compound]",EC50,[1]; [7],10000 nM
same,EC50,[2]; [8],7.8 nM
"CCN(CC)CCCC(C)Nc1ccnc2cc(Cl)ccc12 (stereo not drawn) [Chloroquine, reference compound]",EC50,[1]; [9],32000 nM
same,EC50,[2]; [8],18 nM
"OC(c1cc(C(F)(F)F)nc2c(C(F)(F)F)cccc12)C1CCCCN1 (stereo not drawn) [Mefloquine, reference compound]",EC50,[1]; [7],2900 nM
same,Selective toxicity,[2],91
same,EC50,[2]; [8],32 nM
"CCc1nc(N)nc(N)c1-c1ccc(Cl)cc1 [Pyrimethamine, reference compound]",EC50,[1]; [7],120 nM
same,Selective toxicity,[2],120
same,EC50,[2]; [8],1 nM
"C=C[C@H]1C[N@@]2CC[C@H]1C[C@H]2[C@H](O)c1ccnc2ccc(OC)cc12 [Quinine, reference compound]",EC50,[1]; [7],100000 nM
same,Selective toxicity,[2],910
same,EC50,[2]; [8],110 nM
C=C1OC(O)=C(C(=O)C(OC)C2C(/C=C(\CO)C3CCC(C)C(/C(C)=C/CC4OC(C)(C5CCC(C(O)CC)O5)CC4C)O3)CC(C)C(O)C2CO)C1=O (stereo not drawn) [SF2487 substance Na salt],Rate (%) of proliferation of cells of the F28-7 cell line,[1]; 1 × 10^−5 Molar test compound in culture medium,0%
same,Rate (%) of proliferation of cells of the F28-7 cell line,[1]; 1 × 10^−6 Molar test compound in culture medium,58%
same,Rate (%) of proliferation of cells of the F28-7 cell line,[1]; [10],100%
same,Rate (%) of proliferation of cells of the F28-7 cell line,[1]; 3 + 10^−5 Molar test compound in culture medium,0%
same,Rate (%) of proliferation of cells of the F28-7 cell line,[1]; 3 × 10^−6 Molar test compound in culture medium,45%
same,Rate (%) of proliferation of cells of the F28-7 cell line,[1]; 3 × 10^−7 Molar test compound in culture medium,100%
same,Rate (%) of proliferation of cells of the F28-7 cell line,[1]; 7 × 10^−6 Molar test compound in culture medium,10%
same,Rate (%) of proliferation of cells of the F28-7 cell line,[1]; 7 × 10^−7 Molar test compound in culture medium,70%
same,EC50,[1]; [9],1600 nM
same,EC50,[1]; read-out: concentration necessary to inhibit the proliferation of cells of the F28-7 cell line by 50% (EC50),1600 nM
same,mortality,[3]; 12.5 mg/kg intraperitoneal injection,all three mice survived
same,mortality,[3]; 25 mg/kg intraperitoneal injection,one mouse died among three mice
same,LD50 at 14 days,[4],≥ 25 mg/kg
same,rate (%) of inhibition against the proliferation of the malarial parasite,[5],80%
same,Rate (%) of proliferation of malarial parasite,[2]; [10],0%
same,Rate (%) of proliferation of malarial parasite,[2]; 1 × 10^−8 Molar test compound in culture medium,10%
same,Rate (%) of proliferation of malarial parasite,[2]; 1 × 10^−9 Molar test compound in culture medium,60%
same,Rate (%) of proliferation of malarial parasite,[2]; 1 × 10^−10 Molar test compound in culture medium,100%
same,Rate (%) of proliferation of malarial parasite,[2]; 3 × 10^−8 Molar test compound in culture medium,5%
same,Rate (%) of proliferation of malarial parasite,[2]; 3 × 10^−9 Molar test compound in culture medium,40%
same,Rate (%) of proliferation of malarial parasite,[2]; 3 × 10^−10 Molar test compound in culture medium,100%
same,Rate (%) of proliferation of malarial parasite,[2]; 7 × 10^−8 Molar test compound in culture medium,0%
same,Rate (%) of proliferation of malarial parasite,[2]; 7 × 10^−9 Molar test compound in culture medium,25%
same,Rate (%) of proliferation of malarial parasite,[2]; 7 × 10^−10 Molar test compound in culture medium,85%
same,EC50,"[2]; Plasmodium falciparum, Erythrocyte, read-out: concentration necessary to inhibit the proliferation of malarial parasite by 50% (EC50)",2 nM
same,Selective toxicity,[2],800
same,solubility,"[6]; in chloroform, ethyl acetate and dimethylsulfoxide",soluble
same,solubility,[6]; in ethanol,slightly soluble
same,solubility,[6]; in water,hardly soluble

# Reference: US6939892B2, “Compositions for treating or preventing malaria and method of treating malaria” (Zaidan Hojin Biseibutsu Kagaku Kenkyu Kai, priority 2000, dated 2005)
